Assay results published in patent US9546201B2, “MUC-1 cytoplasmic domain peptides as inhibitors of cancer” (DANA-FARBER CANCER INSTITUTE, INC., priority 2008, dated 2017).
“Also recorded” adds a separate entry of the source. Where a SMILES comes first, the peptide text is derived from it. Where no end group is shown, it is not given here. [ ]: non-standard residue; d: D form.

Assays:
ZR-75-1/vector cells = assay: Viable cell number by trypan blue exclusion, ZR-75-1/vector; assay type: cell-based, human; conditions: 5 μM
Description: (§1) FIGS. 4A-E. Selectivity of MUC1/CQC for MUC1 expressing breast cancer cells. (FIG. 4A) ZR-75-1 cells were stably infected with an empty lentivirus (vector) or one expressing a MUC1 siRNA. Lysates for the infected cells were immunoblotted with the indicated antibodies. (FIG. 4B) ZR-75-1/vector cells were left untreated (diamonds), and ZR-75-1/vector (squares) and ZR-75-1/MUC1siRNA (triangles) cells were treated with 5 μM MUC1/CQC peptide for the indicated times. Viable cell number was determined by trypan blue exclusion. (FIG. 4C) 293 cells were left untreated (diamonds), and treated with 5 μM MUC1/CQC (squares) or MUC1/AQA (triangles) for the indicated times. Viable cell number was determined by trypan blue exclusion. (FIG. 4D) MCF-10A cells were left untreated (left panel), and treated with 5 μM MUC1/CQC (middle panel) or MUC1/AQA (right panel). At 3 d, cells were analyzed for cell cycle distribution. […] Viable cell number was determined by trypan blue exclusion.
(§2) Human breast cancer ZR-75-1, ZR-75-1/vector, ZR-75-1/MUC1siRNA (Ren et al., 2004) cell lines were grown in RPMI1640 medium supplemented with 10% heat-inactivated fetal bovine serum (HI-FBS), 100 U/ml penicillin, and 100 μg/ml streptomycin (Invitrogen) in a humidified incubator at 37° C. and 5% CO2. […] Viability was determined by trypan blue exclusion. […]

ZR-75-1/MUC1siRNA cells = assay: Viable cell number by trypan blue exclusion, ZR-75-1/MUC1siRNA; assay type: cell-based, human; conditions: 5 μM; MUC1 silenced
Description: as §1, §2

MUC1-negative 293 cells = assay: Viable cell number by trypan blue exclusion, 293 cells; assay type: cell-based; conditions: 5 μM
Description: as §1, §2

[1] = test system: MCF-10A non-transformed mammary epithelial cell line; assay: Cell cycle distribution and viable cell number, MCF-10A; assay type: cell-based, human; conditions: 5 μM
Description: as §1, §2

[2] = Body weight of nude mice under peptide administration; assay type: in vivo
His-MUC1-CD = biological target: T1, His-MUC1-CD (Homo sapiens, UniProt P15941); assay: BIAcore binding to immobilized His-MUC1-CD; conditions: data not shown
T1 sequence (P15941 1184-1255): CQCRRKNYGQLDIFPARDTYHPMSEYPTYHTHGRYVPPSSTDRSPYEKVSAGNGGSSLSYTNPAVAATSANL
Description: FIGS. 1A-D. MUC1/CQC peptide blocks MUC1 oligomerization. (FIG. 1A) Schematic representation of the MUC1-C subunit and the 72-amino acid sequence of MUC1-CD (SEQ ID NO: 1) are shown. The N-terminal 15 amino acids (shaded sequence; SEQ ID NO: 3) MUC1/CQC (SEQ ID NO: 63) and mutated MUC1/AQA (SEQ ID NO: 60) peptides were synthesized with the poly-dArg transduction domain. (FIG. 1B) His-MUC1-CD (1.4 mg/ml) was immobilized on a sensor chip in a BIAcore. MUC1/CQC was injected over the chip at 10 μM. Raw binding data were analyzed by BIAevaluation software version 3.0 and fit to a 1:1 Languir binding model. (FIG. 1C) Purified His-MUC1-CD (1.5 mg/ml) was incubated with PBS, 200 μM MUC1/CQC or 200 μM MUC1/AQA for 1 h at room temperature. The proteins were separated in a non-reducing SDS-polyacrylamide gel and analyzed by immunoblotting with anti-MUC1-C. (FIG. 1D) 293 cells were transiently transfected to express an empty vector or GFP-MUC1-CD and Flag-MUC1-CD. At 48 h after transfection, the cells were treated with 5 μM MUC1/CQC or MUC1/AQA for 3 d. The cells were then harvested for immunoblotting with anti-MUC1-C (left panel). […]
The MUC1 cytoplasmic domain (MUC1-CD) contains a CQC motif that is necessary for the formation of oligomers and nuclear localization (Leng et al., 2007). […] Purified His-tagged MUC1-CD forms oligomers as detected by electrophoresis in polyacrylamide gels (FIG. 1C). […]

In the case of `CC[C@H](C)[C@H](NC(=O)[C@H](CC(=O)O)NC(=O)[C@H](CC(C)C)NC(=O)[C@H](CCC(N)=O)NC(=O)CNC(=O)[C@H](Cc1ccc(O)cc1)NC(=O)[C@H](CC(N)=O)NC(=O)[C@H](CCCCN)NC(=O)[C@H](CCCNC(=N)N)NC(=O)[C@H](CCCNC(=N)N)NC(=O)[C@H](CS)NC(=O)[C@H](CCC(N)=O)NC(=O)[C@H](CS)NC(=O)[C@@H](CCCNC(=N)N)NC(=O)[C@@H](CCCNC(=N)N)NC(=O)[C@@H](CCCNC(=N)N)NC(=O)[C@@H](CCCNC(=N)N)NC(=O)[C@@H](CCCNC(=N)N)NC(=O)[C@@H](CCCNC(=N)N)NC(=O)[C@@H](CCCNC(=N)N)NC(=O)[C@@H](CCCNC(=N)N)NC(=O)[C@H](N)CCCNC(=N)N)C(=O)N[C@@H](Cc1ccccc1)C(=O)N1CCC[C@H]1C(=O)O` [MUC1/CQC] (H-[dR][dR][dR][dR][dR][dR][dR][dR][dR]CQCRRKNYGQLDIFP-OH; N-terminus and C-terminus assumed), the “effect on growth (viable cell number)” value (ZR-75-1/vector cells) is reported as “growth arrest and death”, the “effect on growth (viable cell number)” value (ZR-75-1/MUC1siRNA cells) is reported as “substantially less effect; also recorded: abrogated the MUC1/CQC cytotoxic effects” and the effect on growth (MUC1-negative 293 cells) is reported as “no apparent effect”. The effect on growth [1] was “no effect; also recorded: little effect”, the “effect on cell cycle distribution” value ([1]; 3 d) was “no effect” and the “effect on weight of the individual mice” value ([2]; 50 mg/kg IP once each day over 11 d, female nude mice) was “no apparent effect”. The “effect on bodyweight after stopping administration” value ([2]; next 28 d after 50 mg/kg IP daily for 11 d, data not shown) was “no subsequent effect on bodyweight”.

In the case of “MUC1/AQA: control peptide in which the CQC motif was altered to AQA, with poly-dArg transduction domain; SEQ ID NO: 60 ([dR][dR][dR][dR][dR][dR][dR][dR][dR]AQARRKNYGQLDIFP) [reference compound]”, the “binding to His-MUC1-CD” value (His-MUC1-CD) is reported as “no apparent binding”.
